Laboratory results from US7851449B2, “Peptide, pharmaceutical composition, and a method of treating microcirculation disorders” (Obschestvo S Ogranichennoi Otvetstvennostyu “SIA Peptides”, priority 2006, dated 2010).
Marks after values point to notes of the source that are not given here. Peptide text beside a SMILES is read from it.

What was measured:
[1] = tested on: skin capillaries of patients with hypovitaminosis; assay: Skin capillary resistance in patients with hypovitaminosis (Rumpel-Leede-Konchalovskiy cuff test); type: in vivo
Method: The study was conducted on 25 patients aged 19-35, reporting signs of hypovitaminosis in spring. The patients were randomly divided into 2 groups.
The patients of the main group were divided into three sub-groups depending on the hypovitaminosis severity. Patients suffering from the severe hypovitaminosis were subjected to a daily single intramuscular injection of pharmaceutical composition containing H-Lys-Glu-Asp-OH peptide as its active base, in the dose of 5.0 mg in 1.0 ml of sterile 0.9% NaCl solution for 10 days; patients with moderately sever hypovitaminosis—in the dose of 100.0 μg, and patients with mild signs of hypovitaminosis—in the dose of 1.0 μg.
Control group consisted of 18 patients, subjected to an injection of physiological solution following the same scheme. Both groups received only balanced vitamin containing diet.
The estimation of the H-Lys-Glu-Asp-OH peptide effect on resistance of skin capillaries was conducted by means of Rumpel-Leede-Konchalovskiy capillary fragility test. A blood-pressure cuff was applied to the upper part of the arm of the patients. Then there was maintained pressure up to 200 mmHg for 3 minutes. Skin capillary resistance was evaluated on the area of the dosed load on skin capillaries (under the cuff). Hemorrhages were counted with a help of the magnifying glass.
Skin capillary resistance was graded according to the five-point scale: […]

[2] = tested on: male guinea pigs; details: in vivo
Method: (§1) The studies of chronic toxicity were conducted for 6 months, basing on the term of recommended clinical administration of the substance, on 96 male guinea pigs with body weight of 300-340 g. Experimental animals received the peptide daily, once a day, intramuscularly, for 6 months in the doses of 1 μg/kg, 0.1 mg/kg, 1 mg/kg in 0.5 ml of sterile 0.9% NaCl solution. Control animals received sterile 0.9% NaCl solution in the same volume and by the same schedule. Traditional methods were used for the evaluation of the following indices of the animals' peripheric blood: the quantity of erythrocytes, hemoglobin, reticulocytes, thrombocytes, leukocytes, leukocyte formula, erythrocyte sedimentation rate (ESR), erythrocyte resistance. Alongside with that, the content of total protein in the serum was identified using Lowry's method, as well as potassium and sodium content using the method of plasma spectrophotometry. Upon the completion of the experiment pathomorphologic studies of animal brain and spinal cord, spinal cord ganglia, thyroid gland, parathyroid glands, adrenal glands, testis, pituitary body, heart, lungs, aorta, liver, kidneys, urinary bladder, pancreas, stomach, small intestine, large intestine, thymus, spleen, lymph nodes and bone marrow were performed.

[3] = tested on: vascular wall explants; assay: Development of vascular wall explants (area index); type: cell-based, Wistar rats
Method: The experiments were conducted on 32 fragments of vascular wall from the peripheral artery of Wistar rats with body weight of 150-200 g. Nutritional medium for explants cultivation consisted of 35% Eagle's solution, 25% calf fetal serum, 35% Hanx solution, 5% chicken embryonic extract, with the addition of glucose (0.6%), insulin (0,5 units/ml), penicillin (100 units/ml), glutamine (2 mM). […] Peptide H-Lys-Glu-Asp-OH was added into the medium, in the concentration of 1, 10, 100 and 200 ng/ml.
Area index (AI), i.e. the ratio of total explant area together with the growth zone to the initial area of vascular wall fragment served as the criterion of biologic activity. AI values were expressed in percent, control AI values being considered as 100%.

[4] = tested on: rats with experimental parodontitis; assay: Microcirculation in rats with experimental parodontitis (gingiva biomicroscopy, laser dopplerography); type: in vivo; design: capillaries density per area unit: unit not given here; details: for diameter of the capillaries: in µm
Method: The experiments were conducted on 45 white mongrel male and female rats with body weight of 180-200 g. The model of light parodontitis was induced by the method of differentiated feeding of rats with standard granulated PK-120 forage for 1.5 months.
The animals were divided into 3 groups 15 rats in each: the animals of the first group, suffering from parodontitis didn't receive any treatment, rats in the second group suffering from experimental parodontitis were injected with 0.1 ml of sterile 0.9% NaCl solution into the mucous of the gingiva transitional fold (control); the animals of the third group with experimental parodontitis were subjected to a daily single injection of H-Lys-Glu-Asp-OH peptide in the dose of 2 μg in the 0.1 ml of sterile 0,9% NaCl solution into the mucous gingiva transitional fold with simultaneous rubbing in of peptide solution for 10 days.
During all experiments there was conducted a biomicroscopy of mucous membrane of the rats gingiva under nembutal anaesthesia with usage of contact object lenses and estimated the blood flow rate in capillaries by means of laser capillary blood flow analyzer LAKK-01. The studies were conducted in 3 areas of the gingiva, in the free gingiva, attached gingiva and transitional fold in case of 100 magnification. Clinical signs of the parodontitis were evaluated visually.

[5] = tested on: patients with purpura senilis; assay: Hemostasis indices and Hess test in patients with purpura senilis; type: in vivo
Method: The study was conducted on 23 patients aged 70-82, suffering from purpura senilis, who complained of frequent spontaneous hemorrhages on the face, neck, forearms and hands. The patients reported progressive development of the disease.
The patients were randomly divided into two groups. The main group consisted of 12 patients, who were injected with pharmaceutical composition, containing peptide H-Lys-Glu-Asp-OH as its active base, in the dose of 100 μg in 1.0 ml of physiological solution daily intramuscularly for 10 days. Control group consisted of 11 patients, injected with sterile physiological solution following the same scheme.
Complains of the patients were analyzed in dynamics, also there were conducted general blood and urine tests, blood biochemical test. In order to study hemostasis there were made blood coagulogramm and Hess test with a tourniquet.

[6] = tested on: white mongrel male rats; assay: Sub-acute toxicity, 90 days daily intramuscular administration; type: in vivo; details: daily i.m. 90 days, doses exceeding the therapeutic one by 100-1000 times
Method: The study of sub-acute toxicity was performed on 60 white mongrel male rats with body weight of 160-240 g. […] Morphology and properties of the animals' peripheral blood were studied before the administration of the substance, as well as on the 30th, 60th and 90th day after the beginning of the administration. Upon completion of the experiment biochemical and coagulologic indices of the blood were also evaluated.

[7] = tested on: male guinea pigs; assay: Chronic toxicity, 6 months daily intramuscular administration; peripheric blood morphology and biochemical indices; details: long-term administration
Method: as §1

SMILES: NCCCCC(N)C(=O)NC(CCC(=O)O)C(=O)NC(CC(=O)O)C(=O)O (stereo not drawn) [H-Lys-Glu-Asp-OH, lysyl-glutamyl-asparagine acid] (H-Lys-Glu-Asp-OH; configuration not given here)
- Cuff test indices ([1]; After administration, daily i.m. 1.0 μg, 100.0 μg or 5.0 mg by severity, 10 days, P < 0.05 vs before): II* (from 6 to 15)
- Cuff test indices ([1]; Before administration (baseline of the peptide group)): III-IV
- number of skin hemorrhages ([1]; before treatment, patients of both groups): 30-47
- number of skin hemorrhages ([1]; main group after the treatment, control group unchanged): 6-8
- side effects in long-term administration (chronic toxicity) ([2]; guinea pig): absence of any side effects
- changes in guinea pig blood morphology and biochemical indices [2]: no statistically significant changes
- Area index (AI) growth as compared to the control AI ([3]; 100 ng/ml, 3rd day of cultivation, statistically significant): 24%
- effect on vascular wall explants after longer cultivation ([3]; 7 days of cultivating, same concentrations): same stimulating effect
- biomicroscopy of gingival mucous membrane ([4]; attached gingiva and transitional fold, 2 μg daily for 10 days): complete correction of the microcirculation
- index of microcirculation (IM) ([4]; attached gingiva, 2 μg daily for 10 days, NaCl control 0.63±0.04): 0.22±0.05
- diameter of the capillaries ([4]; attached gingiva, 2 μg daily for 10 days, NaCl control 9.8±0.35): 7.8±0.20
- blood flow rate (laser dopplerography) ([4]; attached gingiva, 2 μg daily for 10 days, NaCl control 17±0.7): 20±1.1 conv. units
- capillaries density per area unit ([4]; average of gingiva parts, 2 μg daily for 10 days, norm 29.3±2.3, NaCl control 30±1.5): 34±2.7
- diameter of the capillaries ([4]; free gingiva, 2 μg daily for 10 days, NaCl control 12.3±0.36 (μm printed only)): 8.2±0.1
- blood flow rate (laser dopplerography) ([4]; free gingiva, 2 μg daily for 10 days, norm 18±1.3, NaCl control 15±1.5): 20±0.9 conv. units
- index of microcirculation (IM) ([4]; free gingiva, 2 μg daily into gingiva for 10 days, normal 0.21±0.30, NaCl control 0.75±0.03): 0.29±0.15
- index of microcirculation (IM) ([4]; transitional fold, 2 μg daily for 10 days, NaCl control 0.39±0.02): 0.20±0.18
- diameter of the capillaries ([4]; transitional fold, 2 μg daily for 10 days, NaCl control 9.1±0.09): 6.57±0.1
- blood flow rate (laser dopplerography) ([4]; transitional fold, 2 μg daily for 10 days, NaCl control 19±1.2): 19±2.3 conv. units
- Ethanol test ([5]; 100 μg daily i.m. 10 days, healthy 0, control 43.8): 14.3** % of the positive cases
- Fibrinogen ([5]; 100 μg daily i.m. 10 days, healthy 3.2 ± 0.4, control 2.9 ± 0.1): 2.5 ± 0.1 g/L
- Prothrombin time ([5]; 100 μg daily i.m. 10 days, healthy 12.5 ± 0.1, control 12.4 ± 0.4): 13.3 ± 0.1 s
- Thrombin time ([5]; 100 μg daily i.m. 10 days, healthy 18.2 ± 0.6, control 16.0 ± 0.2): 17.1 ± 0.2 c
- Activated partial thromboplastin time ([5]; 100 μg daily i.m. 10 days, healthy 32.3 ± 2.1, control 48.0 ± 1.3): 58.9 ± 0.7 s
- Euglobulin fibrinolysis ([5]; 100 μg daily i.m. 10 days, healthy 150.0 ± 6.8, control 163.5 ± 5.0): 156.2 ± 3.9 min
- Time of recalcification ([5]; 100 μg daily i.m. 10 days, healthy 178.0 ± 14.0, control 147.3 ± 4.2): 164.2 ± 2.4
- Hess test (vascular walls durability) ([5]; after administration of the pharmaceutical composition): reduction in the number of hemorrhages
- side effects in long-term administration (subacute toxicity) [6]: absence of any side effects
- pathologic alterations (general status, blood indices, organ morphology, cardiovascular, respiratory, liver and kidney functions) [7]: no pathologic alterations
